Experiments:
Format in all cases: in vivo
CRF-OE mice [1] = assay: Long-term hair growth after sc injection in alopecic female CRF-OE mice (Example 5); conditions: two female CRF-OE mice; sc 5 μg/day x 5 days; four months after the final injection
Description: Two female CRF-OE mice, which had fully developed alopecia, received a single daily subcutaneous injection of 5 μg astressin B (in 0.1 ml saline) in the back for five consecutive days. Four (4) months after the final injection, the growth of hair on the backs of both mice was scored 9 out of 10. Similarly, two out of four male CRF-OE mice received intraperitoneal injection of 5 μg astressin B for five consecutive days. Thus, the mice not only grew hair in a previously bald (or balding) region, but such hair was maintained for months without on-going treatment.

CRF-OE mice [2] = assay: Subcutaneous implanted mini-pump in CRF-OE mice, hair growth; conditions: 10 μg/mouse/day for 7 days, implanted mini-pump sc; CRF-OE male and female mice 5-7 months old
Description: Eight (8) out of 9 (89%) female mice responded to injected (sc) astressin B with increased pigmentation and hair growth. The remaining […] female mice were observed qualitatively. Similarly, 4 out of 4 (100%) of the male mice responded to astressin B with increased pigmentation and hair growth. In contrast, none of the astressin 2B-injected mice (0%) grew significant amounts of hair.

young CRF-OE mice = assay: Astressin B fragments, prevention of hair loss in young CRF-OE mice (Example 9); conditions: 5 μg sc or ip x 5 days, all time points
Description: CRF-OE mice similarly injected with 0.1 ml saline alone (or 5 μg astressin 2B in 0.1 ml saline) are used as negative controls. Astressin B fragments are as described in Example 8.

Substance: (cyclo 30-33)[DPhe12, Nle21,38, Cml27,40, Glu30, Lys33]Ac-h/rCRF9-41 [Astressin B]
- Growth of hair on the back, score out of 10 (CRF-OE mice [1]): 9

Substance: cyclo(31-34)[DPhe11, His12, CαMeLeu13,39, Nle17, Glu31, Lys34]Ac-Sau(8-40) [Astressin 2B, reference compound]
- Hair growth for 1 month post treatment (CRF-OE mice [2]): no hair growth was observed
- Hair in the test area (young CRF-OE mice): develop ultimately alopecia in the test area

From patent US10166271B2, “Methods for promoting hair growth” (THE REGENTS OF THE UNIVERSITY OF CALIFORNIA, priority 2006, dated 2019)
